{"source": "paper PMC10341764", "about": "(International Journal of Molecular Sciences, 2023)", "key": {"[1]": {"test_system": "adrenals", "settings": "cited from earlier work"}, "[2]": {"test_system": "ACAT", "set-up": "method as in PMID 8937424, PMID 12536672", "settings": "cited from earlier work"}, "[3]": {"test_system": "cortical regions", "set-up": "method as in PMID 23427273", "settings": "fed to mice for seven days; cited from earlier work"}, "[4]": {"biological_target": "ACAT1", "settings": "cited from earlier work"}, "[5]": {"biological_target": "ACAT2", "settings": "cited from earlier work"}, "[6]": {"set-up": "method as in PMID 12735237", "settings": "cited from earlier work"}, "[7]": {"test_system": "5xFAD mouse model", "set-up": "method as in PMID 37157042", "settings": "oral feeding for 60 days; cited from earlier work"}, "[8]": {"test_system": "mouse model for EOAD", "set-up": "method as in PMID 15473963", "settings": "slow-releasing pellet implanted underneath the mouse skin; cited from earlier work"}, "[9]": {"experiment": "HPLC/MS/MS analysis of F12511 content in plasma and tissues", "assay_type": "in vivo", "settings": "mouse, brain / plasma, intravenous, 46 mg F12511/kg; 12 to 24 h time point", "experimental": "We also monitored the ACAT enzyme activities in various tissues 4 to 48 h after a single IV injection of nanoparticle F at 46 mg/kg.\nBoth compounds were dissolved in DMSO at 10 mg/mL and stored at −40 °C. Subsequent working dilutions were made in fresh acetonitrile (ACN) daily. Calibrators and quality control measures were used in the appropriate matrix: C57BL/6 plasma (anticoagulant: K3-EDTA, Innovative Research), brain homogenate, liver homogenate, and adrenal gland homogenate. The tissues were homogenized at 0.1 g/mL in diH2O by using stainless steel beads and a Next Advance Bullet Blender. All the samples (50 µL) were protein precipitated, with 150 µL of 10 ng/mL CP113,818 in ACN acting as an internal standard and added via vortex for 1 min and centrifugation for 5 min at 15,000 rpm. In total, 150 µL of supernatant was transferred to amber autosampler vials, and 10 µL was injected on the LC-MS/MS system. […] The heated ESI source was operated with a spray voltage of 4500 V, vaporizer temperature at 500 °C, capillary temperature at 250 °C, and sheath and auxiliary gases at 30 and 15 arbitrary units, respectively."}, "[10]": {"test_system": "ACAT enzyme", "experiment": "ACAT enzyme activity in tissue homogenates after IV injection (mixed micelles assay)", "settings": "judged by ACAT inhibition in brain", "description": "Based on this finding, we treated the animals with the inhibitor by IV injection, perfused the mice after the animals were treated (to remove blood contamination from the tissues), then prepared the tissue homogenates, and monitored the ACAT enzyme activity in these tissues by using the mixed micelles enzyme assay described previously [24, 39, 49, 50] (the mixed micelles assay measures the ACAT enzyme activity independent of endogenous lipid composition because it reconstitutes the ACAT protein in mixed micelles with a defined lipid composition)."}, "[11]": {"set-up": "method as in PMID 31646241", "settings": "cited from earlier work"}}}
{"molecule": "CCCCCCCCC(SCCCCCC)C(=O)Nc1c(SC)cc(C)nc1SC", "note": "(single isomer, unassigned) [enantiomeric isomer of CP113,818]", "values": [{"measurement": "adrenal toxicity", "setting": "[1]", "value": "causes severe adrenal toxicity"}, {"measurement": "activity as ACAT inhibitor", "setting": "[2]", "value": "inactive as an ACAT inhibitor"}]}
{"molecule": "O=C(O)C[C@H]1CC[C@H](c2ccc(NC(=O)c3nnc(Nc4ccc(F)c(F)c4)o3)cc2)CC1", "note": "[AZD3988]", "values": [{"measurement": "fine vacuolation in cortical regions", "setting": "[3]", "value": "significant reduction in fine vacuolation in cortical regions"}]}
{"molecule": "CC(C)c1cc(C(C)C)c(CC(=O)NS(=O)(=O)Oc2c(C(C)C)cccc2C(C)C)c(C(C)C)c1", "note": "[CI1011, 2,6-bis(1-methylethyl)phenyl ((2,4,6-tris(1-methylethyl)phenyl)acetyl)sulfamate]", "values": [{"measurement": "Ki", "setting": "[4]", "value": 20000, "unit": "nM"}, {"measurement": "Ki", "setting": "[5]", "value": 20000, "unit": "nM"}, {"measurement": "clinical phase 1 safety tests", "setting": "[6]", "value": "passed clinical phase 1 safety tests"}, {"measurement": "amyloidopathy and other AD-like pathologies", "setting": "[7]", "value": "ameliorated amyloidopathy and other AD-like pathologies"}]}
{"molecule": "CCCCCCCC[C@H](SCCCCCC)C(=O)Nc1c(SC)cc(C)nc1SC", "note": "[CP113,818]", "values": [{"measurement": "Ki", "setting": "[4]", "value": 20, "unit": "nM"}, {"measurement": "Ki", "setting": "[5]", "value": 20, "unit": "nM"}, {"measurement": "adrenal accumulation and toxicity", "setting": "[1]; preclinical trial, animals", "value": "accumulated in adrenals in animals and caused toxicity"}, {"measurement": "amyloidopathy", "setting": "[8]", "value": "effective in suppressing amyloidopathy"}]}
{"molecule": "CCCCCCCCCCCCS[C@H](C(=O)Nc1cc(C)c(O)c(C)c1C)c1ccccc1", "note": "[F12511, (S)-2′,3′,5′-trimethyl-4′-hydroxy-alpha-dodecylthio-alpha-phenylacetanilide]", "values": [{"measurement": "Kp", "setting": "[9]", "value": "0.005 to 0.01"}, {"measurement": "Ki", "setting": "[5]", "value": 110, "unit": "nM"}, {"measurement": "clinical phase 1 safety tests", "setting": "[6]", "value": "passed clinical phase 1 safety tests"}, {"measurement": "adrenal toxicity in animals", "setting": "[1]", "value": "did not cause adrenal toxicity in animals"}, {"measurement": "permeability to the mouse brain as part of nanoparticles", "setting": "[10]", "value": "permeable to the mouse brain"}]}
{"molecule": "CSc1cc(C)nc(SC)c1NC(=O)CN1CCN(CCSc2nc3ccccc3[nH]2)CC1.Cl.Cl", "note": "[K604, 2-[4-[2-(Benzimidazol-2-ylthio)ethyl]piperazin-1yl]-N-[2,4-bis(methylthio)-6-methyl-3-pyridyl]acetamide dihydrochloride]", "values": [{"measurement": "clinical phase 1 safety tests", "setting": "[6]", "value": "passed clinical phase 1 safety tests"}, {"measurement": "permeability to the mouse brain", "setting": "[11]", "value": "impermeable to the mouse brain"}]}
